IC50 data for one compound are collected here from PMC6723059, “A Collection of Bioactive Nitrogen-Containing Molecules from the Marine Sponge Acanthostrongylophora ingens” (Marine Drugs, 2019).

The target in this assay is T1, cyclin-dependent kinase 2 (CDK2/cyclin A) (Homo sapiens, UniProt P24941).
T1 construct: with cyclin A
In words: in vitro protein kinase activity assay, […] ATP. Type of assay: biochemical.

Regarding `O=C1N[C@@H](Cc2ccccc2)C(=O)N2CCC[C@H]12` [compound 6, cyclo(D-Pro-L-Phe)], the IC50 (commonly the concentration needed to halve the response being measured) worked out at 1 µM.
